Structures are written as SMILES. Active and inactive are the calls of the source. The rule behind the calls is not given here.

In the assay the target is Hepatocyte nuclear factor 4-alpha (Homo sapiens) (UniProt P41235). Description: inhibitors of HNF4 dimer formation – biochemical, luminescence, dose response, round 3, counter-screen for ABHD5-PLIN5 interaction inhibitor project, late-stage follow-up (AID 652137). The following applies: HNF4 dimerization, luminescence biochemical assay. In general terms: A counterscreen serves to expose hits that act by an unwanted route or on another target.
Sequence of Hepatocyte nuclear factor 4-alpha (Homo sapiens) (P41235 whole entry, looked up): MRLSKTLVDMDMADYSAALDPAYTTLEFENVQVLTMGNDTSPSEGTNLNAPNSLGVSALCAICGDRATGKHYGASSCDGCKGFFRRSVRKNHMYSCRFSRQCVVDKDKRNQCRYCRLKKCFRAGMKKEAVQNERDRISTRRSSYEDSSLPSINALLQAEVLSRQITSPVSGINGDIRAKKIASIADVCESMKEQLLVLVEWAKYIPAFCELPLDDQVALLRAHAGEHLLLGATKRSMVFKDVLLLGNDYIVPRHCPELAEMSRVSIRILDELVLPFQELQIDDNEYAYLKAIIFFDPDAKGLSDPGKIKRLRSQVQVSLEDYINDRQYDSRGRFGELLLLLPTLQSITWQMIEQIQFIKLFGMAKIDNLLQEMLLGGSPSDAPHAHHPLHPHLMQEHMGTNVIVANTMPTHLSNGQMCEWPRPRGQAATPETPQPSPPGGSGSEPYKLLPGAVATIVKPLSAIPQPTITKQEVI
By IC50 is commonly meant the midpoint of a concentration-inhibition curve. For the compound `CCCCCCNC(=O)Nc1ccc2c(c1)N(C)C(=O)c1ccccc1S2`, the IC50 is > 39.8 µM (inactive).
The result for `CN1C(=O)c2ccccc2Sc2ccc(NC(=O)NCCCc3ccccc3)cc21` reads > 39.8 µM (inactive); that for `CCCCCCCNC(=O)Nc1ccc2c(c1)N(C)C(=O)c1ccccc1S2`, > 39.8 µM (inactive).
The same measure for `CCCCNC(=O)Nc1ccc2c(c1)N(C)C(=O)c1ccccc1S2`: > 39.8 µM (inactive); for `CCCCCNC(=O)Nc1ccc2c(c1)N(C)C(=O)c1ccccc1S2`: > 39.8 µM (inactive).

The record behind these values is PubChem BioAssay AID652137 (The Scripps Research Institute Molecular Screening Center, 2013).
